Consider four compounds from patent EP0306846A2, “Synergistic combination comprising a phosphodiesterase inhibitor and a thromboxane-A2 antagonist, and its use or preparation” (Dr. Karl Thomae GmbH, priority 1987, dated 1989).

The subject of assay [1] is Plättchenaggregation im Gesamtblut. Nature of the assay: collagen-induced platelet aggregation in pooled rat whole blood, substances added in vitro. Type of assay: cell-based, Ratten. The conditions noted are these: collagen 7 µg/ml, read-out: % Hemmung. As for the experimental part: Ratten mit einem durchschnittlichen Körpergewicht von 250 bis 300 g wurden mit 60 mg/kg Pentobarbital narkotisiert. Aus der abdominalen Arterie wurde 4,5 ml Blut entnommen und in 0,5 ml Zitrat (3,8 %) gegeben. Das Blut von 3 Ratten wurde jeweils gepoolt und Proben hiervon, die Lösungsmittel, die Einzelsubstanzen oder die zu untersuchende Kombination enthielten, wurden 10 Minuten lang rotiert. Von diesen Proben wurden jeweils 200 µl in Aggregometer-Küvetten gegeben und 5 Minuten lang bei 37°C gerührt. Anschließend wurden 10 µl Collagenlösung (Endkonzentration: 7 µg/ml) zugegeben und zu verschiedenen Zeiten jeweils 10 µl Blut entnommen, welches anschließend mit Formaldehyd fixiert wurde. In diesen Proben wurden die nicht aggregierten Plättchen mit einem Ultra-Flo 100 (Becton-Dickinson) bestimmt. Die nachfolgende Tabelle enthält die gefundenen Werte: […]

The test system is the same in assay [2]. Nature of the assay: collagen-induced platelet aggregation in whole blood of rats after administration of the substances (ex vivo). Also noted: species or system Ratten. The following applies: rat, versus vehicle controls. How it is done:
Ratten mit einem durchschnittlichen Körpergewicht von 250 bis 300 g wurden mit 60 mg/kg Pentobarbital narkotisiert. Aus der abdominalen Arterie wurde 4,5 ml Blut entnommen und in 0,5 ml Zitrat (3,8 %) gegeben. Das Blut von 3 Ratten wurde jeweils gepoolt und Proben hiervon, die Lösungsmittel, die Einzelsubstanzen oder die zu untersuchende Kombination enthielten, wurden 10 Minuten lang rotiert. Von diesen Proben wurden jeweils 200 µl in Aggregometer-Küvetten gegeben und 5 Minuten lang bei 37°C gerührt. Anschließend wurden 10 µl Collagenlösung (Endkonzentration: 7 µg/ml) zugegeben und zu verschiedenen Zeiten jeweils 10 µl Blut entnommen, welches anschließend mit Formaldehyd fixiert wurde. In diesen Proben wurden die nicht aggregierten Plättchen mit einem Ultra-Flo 100 (Becton-Dickinson) bestimmt. Die nachfolgende Tabelle enthält die gefundenen Werte:
Desweiteren wurde die synergistische Wirkung auf die Plättchenaggregation im Gesamtblut für die Kombination, bestehen aus Pimobendan (Substanz C) und Substanz B in Vergleich zu den Einzelverbindungen wie folgt untersucht: Ratten mit einem durchschnittlichen Körpergewicht von 250 bis 300 g Körpergewicht wurden 5 mg/kg Substanz C und 0,5 mg/kg Substanz B oder die Kombination im Vergleich zu Kontrollen, welche nur das Vehikel appliziert bekamen, gegeben. […]

The conditions of assay [3]: in combination with Dipyridamol; J. Clin. Invest. 75, 1591-1599 (1985); cited from earlier work.

In the case of `O=C(O)CCCc1ccc2c(c1)CC(NS(=O)(=O)c1ccc(Cl)cc1)C2` (stereo not drawn) [Substanz B, 4-[2-p-Chlorbenzolsulfonamido-indan-5-yl]-buttersäure], the inhibition at 0.1 µM in assay [1] (0,10 µMol/l) was found to be 3%. In assay [1] (0,30 µMol/l), the inhibition at 0.3 µM was 19%. In addition, the “% Hemmung” value in assay [2] (dose 0,5 mg/kg) came to 59%.

In the case of `COc1ccc(-c2nc3ccc(C4=NNC(=O)CC4C)cc3[nH]2)cc1` (stereo not drawn) [Substanz C, 2-(4-Methoxy-phenyl)-5(6)-(5-methyl-3-oxo-4,5-dihydro-2H-6-pyridazinyl)-benzimidazol, reference compound], the “% Hemmung” value in assay [2] (dose 5,0 mg/kg) is listed as -1%.

`O=C(O)c1ccc(OCCn2ccnc2)cc1` [Dazoxiben, 4-[2-(1H-Imidazol-1-yl)-ethoxy]benzoesäure]: the “Einfluß auf die antithrombotische Wirkung des PDE-Hemmers” value in assay [3] is on record as “keinen verbessernden Einfluß”.

As for `CCOc1nc(N2CCNCC2)nc(N2CC[S+]([O-])CC2)c1[N+](=O)[O-]` [Substanz A, 6-Äthoxy-5-nitro-4-(1-oxidothiomorpholino)-2-piperazino-pyrimidin], in assay [1] (0,03 µMol/l), the inhibition at 0.03 µM was 4%.
